Results published in patent US20240246950A1, “Anilino-Pyrazole Derivatives, Compositions and Methods Thereof” (Ensem Therapeutics, priority 2022, published 2024).

Key:
CDK1/cyclinB = CDK1/cyclinB (Homo sapiens, UniProt P06493); assay: In vitro kinase TR-FRET assay CDK1/cyclinB; assay type: biochemical; conditions: enzyme 0.3 nM, ATP 56 μM
Experimental: (§1) In vitro kinase TR-FRET assays: CDK2/CycA2, CDK2/CycE1, CDK1/cyclinB and GSK3β
(§2) The test compounds were prepared as 10 mM stock solution in 100% DMSO. The stock solution was then serially diluted 3-fold in 100% DMSO to 10 concentrations. 200 nL of each diluted compound solution was transferred to 384-well plate in duplicate. To each well, 5 uL of enzyme and ATP mixture solution containing enzyme CDK2/CycA2, CDK2/CycE1, CDK1/cyclinB, or GSK30 (final concentrations 3 nM, 0.6 nM, 0.3 nM, 0.6 nM, respectively) and ATP (final concentrations 27 μM, 82 μM, 56 μM, 7.6 μM, respectively) in the assay buffer (50 mM HEPES, pH7.5, 10 mM MgCl2, 1 mM DTT, 0.01% BSA, 0.01% Triton X-100). For negative control, 5 uL of assay buffer was added instead. The plate was incubated at room temperature for 10 min. 5 uL of peptide solution containing ULight-4E-BP1 peptide (final concentrations 50 nM) in the assay buffer was subsequently added into each well to initiate the reaction. By incubation at room temperature for 1 hour, 10 uL of 2 nM Eu-anti-phospho-4E BP1 antibody was then added for detection. After one hour incubation at room temperature, all samples were subjected to read the TR-FRET signal on Envision with excitation at 340 nm and emission fluorescence at 615 nm and 665 nm. IC50 values were then calculated by plotting dose-response curves and then using the XLfit application in Excel software.

GSK3β = GSK3β (Homo sapiens, UniProt P49841); assay: In vitro kinase TR-FRET assay GSK3β; assay type: biochemical; conditions: enzyme 0.6 nM, ATP 7.6 μM
Sequence of GSK3β (P49841 whole entry, species assumed): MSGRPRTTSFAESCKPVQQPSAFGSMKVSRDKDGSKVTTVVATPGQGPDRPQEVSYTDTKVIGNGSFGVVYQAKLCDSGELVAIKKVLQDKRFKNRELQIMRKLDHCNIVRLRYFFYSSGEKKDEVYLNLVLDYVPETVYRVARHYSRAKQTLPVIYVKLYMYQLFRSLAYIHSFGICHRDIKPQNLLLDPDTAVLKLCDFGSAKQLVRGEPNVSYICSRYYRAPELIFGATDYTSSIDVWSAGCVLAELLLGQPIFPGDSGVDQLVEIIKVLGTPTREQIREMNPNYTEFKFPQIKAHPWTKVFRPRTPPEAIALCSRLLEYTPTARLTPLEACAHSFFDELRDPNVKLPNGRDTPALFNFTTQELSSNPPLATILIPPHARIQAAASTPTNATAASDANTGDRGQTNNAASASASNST
Experimental: as §1, §2

OVCAR3 = assay: Cell proliferation (CyQUANT) OVCAR3; assay type: cell-based; conditions: Homo sapiens, OVCAR-3, 168 h, OVCAR3, 7 days, read-out: Anti-proliferation assay: IC50 (nM) [Cell Line: OVCAR3]
Experimental: (§3) Cancer cell lines, namely, OVCAR3, TOV21G were seeded onto 96 well cell culture plates at a density of 2500, 1000 or 3000 cells/well, respectively and cultured overnight. Cells treated with test compounds at 3-fold dose titration for 7 days at maximum final DMSO concentration of 0.01%. The CyQUANT® Cell Proliferation Assay, a highly sensitive fluorescence-based method for quantifying cells and assessing cell proliferation and cytotoxicity was employed, following manufacturer's procedure (ThermnoFisher, Cataloge #C35012). Plates were scanned with a laser-based Acumen Cellistra instrument by TTP LabTech at Ex/Em 480/520 nm. % Inhibition is calculated based on DMSO control wells on the same plate (ie, DMSO wells have 100% growth and 0% growth inhibition).

CDK2/CycE1 = CDK2/CycE1 (Homo sapiens, UniProt P24941); assay: In vitro kinase TR-FRET assay CDK2/CycE1; assay type: biochemical; conditions: enzyme 0.6 nM, ATP 82 μM, read-out: CDK2 cyclinE1 activity assay: IC50
Experimental: as §1, §2

CDK2/CycA2 = CDK2/CycA2 (Homo sapiens, UniProt P24941); assay: In vitro kinase TR-FRET assay CDK2/CycA2; assay type: biochemical; conditions: enzyme 3 nM, ATP 27 μM, read-out: CDK2 cyclinA2 activity assay: IC50
Experimental: as §1, §2

TOV21G = assay: Cell proliferation (CyQUANT) TOV21G; assay type: cell-based; conditions: Homo sapiens, 168 h, 7 days, read-out: Anti-proliferation assay: IC50 (nM) [Cell Line: TOV21G]
Experimental: as §3

Sequence of CDK1/cyclinB (P06493 whole entry): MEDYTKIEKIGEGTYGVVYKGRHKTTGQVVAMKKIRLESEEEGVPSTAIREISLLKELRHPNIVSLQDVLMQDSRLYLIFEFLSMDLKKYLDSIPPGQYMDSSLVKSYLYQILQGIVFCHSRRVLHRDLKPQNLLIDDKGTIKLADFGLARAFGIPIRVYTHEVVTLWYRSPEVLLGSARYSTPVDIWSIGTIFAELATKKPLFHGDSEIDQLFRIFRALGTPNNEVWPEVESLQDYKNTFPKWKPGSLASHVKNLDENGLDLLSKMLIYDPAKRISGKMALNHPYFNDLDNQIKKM
Sequence of CDK1/cyclinB (P14635 whole entry partner): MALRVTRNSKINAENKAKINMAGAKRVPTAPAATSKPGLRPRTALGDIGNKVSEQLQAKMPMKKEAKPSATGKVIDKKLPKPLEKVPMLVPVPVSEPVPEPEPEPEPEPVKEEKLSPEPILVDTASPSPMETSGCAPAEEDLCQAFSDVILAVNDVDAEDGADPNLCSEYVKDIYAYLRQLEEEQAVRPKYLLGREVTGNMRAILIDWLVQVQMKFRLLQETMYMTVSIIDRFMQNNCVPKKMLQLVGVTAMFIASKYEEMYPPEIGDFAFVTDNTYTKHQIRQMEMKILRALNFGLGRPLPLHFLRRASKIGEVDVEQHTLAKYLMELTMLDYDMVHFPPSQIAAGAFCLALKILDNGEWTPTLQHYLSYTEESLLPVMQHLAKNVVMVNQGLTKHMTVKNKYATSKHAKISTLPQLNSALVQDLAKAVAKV

IC50 (CDK1/cyclinB) [nM]	IC50 (GSK3β) [nM]	IC50 (OVCAR3) [nM]	IC50 (CDK2/CycE1) [nM]	IC50 (CDK2/CycA2) [nM]	SMILES	IC50 (TOV21G) [nM]
50 to 500	500 to 1000	≤ 500	< 50	< 50	CC(C)NC(=O)O[C@@H]1CC[C@H](c2cc(Nc3ccc4c(c3)CC(F)(F)C4)n[nH]2)C1 [Example 32, (1R,3S)-3-(3-((2,2-difluoro-2,3-dihydro-1H-inden-5-yl)amino)-1H-pyrazol-5-yl)cyclopentyl isopropylcarbamate]	≥ 1000
50 to 500	500 to 1000	500 to 1000	< 50	< 50	CC(C)NC(=O)O[C@@H]1CC[C@H](c2cc(Nc3ccc4c(c3)oc(=O)n4C)n[nH]2)C1 [Example 34, (1R,3S)-3-{5-[(3-methyl-2-oxobenzo[d][1,3]oxazol-6-yl)amino]-2H-pyrazol-3-yl}cyclopentyl (prop-2-ylamino)methanoate]	≥ 1000
50 to 500	50 to 500	≤ 500	< 50	< 50	CC(C)NC(=O)O[C@@H]1CC[C@H](c2cc(Nc3cccc4c3CCS4(=O)=O)n[nH]2)C1 [Example 36, (1R,3S)-3-(3-((1,1-dioxido-2,3-dihydrobenzo[b]thiophen-4-yl)amino)-1H-pyrazol-5-yl)cyclopentyl isopropylcarbamate]	≤ 500
50 to 500	> 1000	≥ 1000	< 50	< 50	CC(C)NC(=O)O[C@H]1CC[C@@H](c2cc(Nc3ccc4c(c3)S(=O)(=O)NC4)n[nH]2)CC1 [Example 37, (1s,4s)-4-(3-((1,1-dioxido-2,3-dihydrobenzo[d]isothiazol-6-yl)amino)-1H-pyrazol-5-yl)cyclohexyl isopropylcarbamate]	≥ 1000
< 50	> 1000	≤ 500	< 50	< 50	CC(C)NC(=O)O[C@@H]1CC[C@H](c2cc(Nc3ccc4c(c3)NS(=O)(=O)C4)n[nH]2)C1 [Example 38, (1R,3S)-3-(3-((2,2-dioxido-1,3-dihydrobenzo[c]isothiazol-6-yl)amino)-1H-pyrazol-5-yl)cyclopentyl isopropylcarbamate]	≥ 1000
50 to 500	> 1000	≤ 500	< 50	< 50	CC(C)NC(=O)O[C@@H]1CC[C@H](c2cc(Nc3cccc4c3CS(=O)(=O)C4)n[nH]2)C1 [Example 40, (1R,3S)-3-{5-[(2,2-dioxo-1,3-dihydro-2λ^6-benzo[c]thiophen-4-yl)amino]-2H-pyrazol-3-yl}cyclopentyl (prop-2-ylamino)methanoate]	≥ 1000
50 to 500	500 to 1000	≤ 500	< 50	< 50	CC(C)NC(=O)O[C@@H]1CC[C@H](c2cc(Nc3ccc4c(c3)N(C)S(=O)(=O)C4)n[nH]2)C1 [Example 41, (1R,3S)-3-{5-[(1-methyl-2,2-dioxo-1,3-dihydro-2X^6-benzo[2,1-c][1,2]thiazol-6-yl)amino]-2H-pyrazol-3-yl}cyclopentyl (prop-2-ylamino)methanoate]	≤ 500
50 to 500	500 to 1000	≤ 500	< 50	< 50	CC(C)NC(=O)O[C@@H]1CC[C@H](c2cc(Nc3ccc4c(c3)CS(=O)(=O)N4C)n[nH]2)C1 [Example 42, (1R,3S)-3-{5-[(1-methyl-2,2-dioxo-1,3-dihydro-2%6-benzo[c][1,2]thiazol-5-yl)amino]-2H-pyrazol-3-yl}cyclopentyl (prop-2-ylamino)methanoate]	≤ 500
< 50	> 1000	≥ 1000	< 50	< 50	CC(C)NC(=O)O[C@@H]1CC[C@H](c2cc(Nc3ccc4c(c3)CS(=O)(=O)N4)n[nH]2)C1 [Example 45, (1R,3S)-3-{5-[(2,2-dioxo-1,3-dihydro-2λ6-benzo[c][1,2]thiazol-5-yl)amino]-2H-pyrazol-3-yl}cyclopentyl (prop-2-ylamino)methanoate]	≥ 1000
50 to 500	50 to 500	≤ 500	< 50	< 50	CC(C)NC(=O)O[C@@H]1CC[C@H](c2cc(Nc3cccc4c3CNS4(=O)=O)n[nH]2)C1 [Example 46, (1R,3S)-3-(3-((1,1-dioxido-2,3-dihydrobenzo[d]isothiazol-4-yl)amino)-1H-pyrazol-5-yl)cyclopentyl isopropylcarbamate]	500 to 1000
50 to 500	> 1000	≤ 500	< 50	< 50	CC(C)NC(=O)O[C@@H]1CC[C@H](c2cc(Nc3cccc4c3CN(C)S4(=O)=O)n[nH]2)C1 [Example 47, (1R,3S)-3-(3-((2-methyl-1,1-dioxido-2,3-dihydrobenzo[d]isothiazol-4-yl)amino)-1H-pyrazol-5-yl)cyclopentyl isopropylcarbamate]	≤ 500
50 to 500	> 1000	≤ 500	< 50	< 50	CC(C)NC(=O)O[C@H]1CC[C@@H](c2cc(Nc3cccc4c3CCS4(=O)=O)n[nH]2)CC1 [Example 49, (1s,4s)-4-(3-((1,1-dioxido-2,3-dihydrobenzo[b]thiophen-4-yl)amino)-1H-pyrazol-5-yl)cyclohexyl isopropylcarbamate]	500 to 1000
50 to 500	50 to 500	≤ 500	< 50	< 50	CC(C)NC(=O)O[C@@H]1CC[C@H](c2cc(Nc3ccc(F)c4c3CCS4(=O)=O)n[nH]2)C1 [Example 50, (1R,3S)-3-{5-[(7-fluoro-1,1-dioxo-2,3-dihydro-1λ^6-benzothiophen-4-yl)amino]-2H-pyrazol-3-yl}cyclopentyl (prop-2-ylamino)methanoate]	≤ 500

SMILES	IC50 (CDK1/cyclinB) [nM]	IC50 (GSK3β) [nM]	IC50 (OVCAR3) [nM]	IC50 (CDK2/CycE1) [nM]	IC50 (CDK2/CycA2) [nM]	IC50 (TOV21G) [nM]
CC(C)NC(=O)O[C@@H]1CC[C@H](c2cc(Nc3ccc4c(c3)CCC4C#N)n[nH]2)C1 (stereo partly drawn) [Example 29, (1R,3S)-3-{5-[(1-cyano-2,3-dihydro-1H-inden-5-yl)amino]-2H-pyrazol-3-yl}cyclopentyl (prop-2-ylamino)methanoate]	50 to 500	50 to 500	500 to 1000	< 50	< 50	≥ 1000
CC(C)NC(=O)O[C@@H]1CC[C@H](c2cc(Nc3ccc4c(c3)CCC(=O)N4)[nH]n2)C1 [Example 30, (1R,3S)-3-{5-[(2-oxo-1,2,3,4-tetrahydroquinolin-6-yl)amino]-1H-pyrazol-3-yl}cyclopentyl (prop-2-ylamino)methanoate]	50 to 500	> 1000	500 to 1000	< 50	< 50	≥ 1000
CC(C)NC(=O)O[C@@H]1CC[C@H](c2cc(Nc3ccc4c(c3)C(C#N)CC4)n[nH]2)C1 (stereo partly drawn) [Example 31, (1R,3S)-3-{5-[(3-cyano-2,3-dihydro-1H-inden-5-yl)amino]-2H-pyrazol-3-yl}cyclopentyl (prop-2-ylamino)methanoate]	50 to 500	50 to 500	≤ 500	< 50	< 50	≤ 500
CC(C)NC(=O)O[C@H]1CC[C@@H](c2cc(Nc3ccc4c(c3)CS(=O)(=O)C4)n[nH]2)CC1 [Example 33, (1s,4s)-4-(3-((2,2-dioxido-1,3-dihydrobenzo[c]thiophen-5-yl)amino)-1H-pyrazol-5-yl)cyclohexyl isopropylcarbamate]	< 50	> 1000	≤ 500	< 50	< 50	≤ 500
